# Measurements from patent US20230202997A1, “CHROMANOL, QUINONE OR HYDROQUINONE COMPOUNDS FOR TREATMENT OF SEPSIS” (Sulfateq B.V., priority 2020, published 2023).
# Tested on: cytoplasmic oxidative stress in HUVEC
# Test: LPS-induced cellular superoxide in HUVEC (DHE)
# Type: cell-based, Human
# Settings: 10 μM for 30 min, LPS 100 ng/ml 24 hours
# Protocol: Human Umbilical Cord Endothelial Cells (HUVEC, Lonza CC-2519) were maintained on 1% gelatin-coated culture flasks in RPMI1640 medium containing 20% fetal bovine serum, 2 mM Glutamine (Sigma-Aldrich), 1% Penicillin-Streptomycin solution (Sigma-Aldrich) and 50 μg/ml Bovine Pituitary Extract (Invitrogen). HUVEC were passaged by trypsinization when the cultures reach a confluency of 70%. For all experiments, HUVEC were seeded at 0.6·10^5 cells/cm^2 and allowed to adhere for 24 hours.
# The production of cellular and mitochondrial oxidative stress was measured using fluorescent probes for cellular and mitochondrial superoxide, i.e. dihydroethidium (DHE) and MitoSox (ThermoFisher), respectively. HUVEC were incubated with BN-80933, SUL-138 or SUL-150 (all 10 μM) for 30 min. Next, HUVEC were exposed to LPS (100 ng/ml) for an additional 24 hours. In the final hour of incubation, 2.5 μM of DHE or MitoSox was applied to each sample. HUVEC were washed in PBS and fixed in 4% paraformaldehyde at room temperature for 15 min. Nuclear staining was performed by 5 μM […] (DAPI) and fluorescence intensity of the samples was recorded in a CLARIOStar Plus plate reader (BMG Labtech) equipped with the appropriate filter sets. Fluorescence recordings for DHE and MitoSox were corrected for DAPI fluorescence. All experiments were performed in quadruplicate.
compound,measurement,value
"Cc1c(C)c2c(c(C)c1O)CC[C@@](C)(C(=O)N1CCN(CCO)CC1)O2 [SUL-138, (S)-(6-hydroxy-2,5,7,8-tetramethylchroman-2-yl)(4-(2-hydroxyethyl)piperazin-1-yl)methanone]",LPS-induced cytoplasmic oxidative stress (DHE),mitigates the induction of cytoplasmic oxidative stress
